Molecular target: human NLRP3 (Homo sapiens (Human), UniProt Q96P20)
Assay: Scintillation Proximity (SPA) NLRP3 Assay: displacement of 3H-MCC950
Format: binding
Settings: SPA IC50, displacement of 3H-MCC950

Chain of human NLRP3 (Q96P20 whole entry): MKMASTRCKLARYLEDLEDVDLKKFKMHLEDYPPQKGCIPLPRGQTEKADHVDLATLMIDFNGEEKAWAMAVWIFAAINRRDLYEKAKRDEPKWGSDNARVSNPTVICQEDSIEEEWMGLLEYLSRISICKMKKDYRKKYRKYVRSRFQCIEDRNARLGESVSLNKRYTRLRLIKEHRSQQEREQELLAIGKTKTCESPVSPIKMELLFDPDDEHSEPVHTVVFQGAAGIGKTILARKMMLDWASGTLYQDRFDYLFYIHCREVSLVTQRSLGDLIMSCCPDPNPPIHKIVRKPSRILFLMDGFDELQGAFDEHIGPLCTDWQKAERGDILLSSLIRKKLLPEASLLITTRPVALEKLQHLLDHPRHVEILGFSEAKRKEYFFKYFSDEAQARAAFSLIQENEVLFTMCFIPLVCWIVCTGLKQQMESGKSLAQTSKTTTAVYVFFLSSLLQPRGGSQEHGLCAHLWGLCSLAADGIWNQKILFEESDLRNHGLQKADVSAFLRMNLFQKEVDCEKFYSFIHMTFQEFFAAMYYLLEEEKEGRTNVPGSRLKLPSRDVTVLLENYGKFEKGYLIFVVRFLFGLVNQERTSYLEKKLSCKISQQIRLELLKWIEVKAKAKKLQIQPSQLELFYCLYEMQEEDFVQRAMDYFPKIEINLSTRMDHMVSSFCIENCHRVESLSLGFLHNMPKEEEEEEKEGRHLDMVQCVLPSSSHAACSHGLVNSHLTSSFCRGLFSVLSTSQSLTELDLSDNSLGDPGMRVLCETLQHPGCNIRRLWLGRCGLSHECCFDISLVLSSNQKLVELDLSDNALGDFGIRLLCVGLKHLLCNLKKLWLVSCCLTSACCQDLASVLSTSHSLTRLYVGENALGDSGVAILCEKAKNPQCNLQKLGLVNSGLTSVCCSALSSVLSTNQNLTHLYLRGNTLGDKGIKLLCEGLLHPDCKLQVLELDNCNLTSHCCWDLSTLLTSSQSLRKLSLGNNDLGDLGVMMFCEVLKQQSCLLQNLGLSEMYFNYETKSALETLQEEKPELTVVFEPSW

SMILES	IC50 [µM]
O=C(N[C@H]1CCC[C@@H]2CC[C@H]1N2c1nnn[nH]1)C1(c2ccc(Cl)cc2)CC1 (single isomer, unassigned) [9B*, N-(9-(1H-tetrazol-5-yl)-9-azabicyclo[4.2.1]nonan-2-yl)-1-(4-chlorophenyl)cyclopropane-1-carboxamide]	> 100

Same assay, conditions: displacement of 3H-MCC950; read-out: SPA IC50

SMILES	IC50 [µM]
C[C@@]1(NC(=O)C2(c3ccc(Cl)cc3)CC2)CCCN(c2nnn[nH]2)C1 (single isomer, unassigned) [11A*, 1-(4-chlorophenyl)-N-(3-methyl-1-(1H-tetrazol-5-yl)piperidin-3-yl)cyclopropane-1-carboxamide]	> 100
C[C@@H]1C[C@@H](NC(=O)C2(c3ccc(OC(F)F)cc3)CC2)[C@@H]2CC[C@H]1N2c1nnn[nH]1 (single isomer, unassigned) [35G*]	> 100
C[C@@H]1C[C@H](NC(=O)C2(c3ccc(SC(F)F)cc3)CC2)[C@H]2CC[C@@H]1N2c1nnn[nH]1 [85B*, 1-(4-((difluoromethyl)thio)phenyl)-N-((1R,2S,4R,5S)-4-methyl-8-(1H-tetrazol-5-yl)-8-azabicyclo[3.2.1]octan-2-yl)cyclopropane-1-carboxamide]	10 to 50
O=C(N[C@H]1CC[C@@H]2CC[C@H]1N2c1nnn[nH]1)C1(c2ccc(Cl)c(F)c2O)CC1 [76B*, N-((1R,2S,5R)-8-(1H-tetrazol-5-yl)-8-azabicyclo[3.2.1]octan-2-yl)-1-(4-chloro-3-fluoro-2-hydroxyphenyl)cyclopropane-1-carboxamide]	10 to 50
O=C(N[C@H]1CCCN(c2nnn[nH]2)C1)C1(c2ccc(Cl)cc2)CC1 [Compound 10B, (S)—N-(1-(1H-tetrazol-5-yl)piperidin-3-yl)-1-(4-chlorophenyl)cyclopropane-1-carboxamide]	> 100
O=C(N[C@H]1CC[C@@H]2CC[C@H]1N2c1nnn[nH]1)C1(c2ccc(C(F)(F)F)cc2O)CC1 (single isomer, unassigned) [34B*]	1 to 10
O=C(N[C@H]1CN(c2nnn[nH]2)CC[C@H]1F)C1(c2ccc(Cl)cc2)CC1 [Compound 50A, 1-(4-chlorophenyl)-N-[(3S,4R)-4-fluoro-1-(1H-tetrazol-5-yl)-3-piperidyl]cyclopropanecarboxamide]	10 to 50
C[C@H]1C[C@H](NC(=O)C2(c3ccc(C(F)(F)F)cc3)CC2)[C@@H]2CC[C@H]1N2c1nnn[nH]1 [79D*, N-((1S,2S,4S,5R)-4-methyl-8-(1H-tetrazol-5-yl)-8-azabicyclo[3.2.1]octan-2-yl)-1-(4-(trifluoromethyl)phenyl)cyclopropane-1-carboxamide]	10 to 50
O=C(N[C@H]1CC[C@@H]2CC[C@H]1N2c1nnn[nH]1)C1(c2ccc(OC(F)(F)F)cc2O)CC1 [78B*, N-((1R,2S,5R)-8-(1H-tetrazol-5-yl)-8-azabicyclo[3.2.1]octan-2-yl)-1-(2-hydroxy-4-(trifluoromethoxy)phenyl)cyclopropane-1-carboxamide]	1 to 10
O=C(N[C@H]1CCCCCN(c2nnn[nH]2)C1)C1(c2ccc(Cl)cc2)CC1 (single isomer, unassigned) [14B*, N-(1-(1H-tetrazol-5-yl)azocan-3-yl)-1-(4-chlorophenyl)cyclopropane-1-carboxamide]	10 to 50
O=C(N[C@@H]1C[C@H](C(F)(F)F)[C@H]2CC[C@@H]1N2c1nnn[nH]1)C1(c2ccc(Cl)cc2)CC1 (single isomer, unassigned) [103C*]	> 100
C[C@H]1C[C@@H](NC(=O)C2(c3ccc(C(F)(F)F)cc3F)CC2)[C@@H]2CC[C@H]1N2c1nnn[nH]1 [84C*, 1-(2-fluoro-4-(trifluoromethyl)phenyl)-N-((1S,2R,4S,5R)-4-methy1-8-(1H-tetrazol-5-yl)-8-azabicyclo[3.2.1]octan-2-yl)cyclopropane-1-carboxamide]	> 100

Continued, values first:

IC50 [µM]	SMILES
1 to 10	Cc1c(Cl)ccc(C2(C(=O)N[C@H]3C[C@H](C)CCN(c4nnn[nH]4)C3)CC2)c1O (single isomer, unassigned) [21B*, 1-(4-chloro-2-hydroxy-3-methylphenyl)-N-(5-methyl-1-(1H-tetrazol-5-yl)azepan-3-yl)cyclopropane-1-carboxamide]
10 to 50	C[C@H]1CCN(c2nnn[nH]2)C[C@@H](NC(=O)C2(c3ccc(C4CC4)c(F)c3O)CC2)C1 (single isomer, unassigned) [32D*, 1-(4-cyclopropyl-3-fluoro-2-hydroxyphenyl)-N-(5-methyl-1-(1H-tetrazol-5-yl)azepan-3-yl)cyclopropane-1-carboxamide]
> 100	C[C@H]1CCN(c2nnn[nH]2)C[C@H](NC(=O)C2(c3ccc(C(F)(F)F)c(F)c3)CC2)C1 (single isomer, unassigned) [66C*]
10 to 50	C[C@H]1CCN(c2nnn[nH]2)C[C@@H](NC(=O)C2(c3ccc(C(F)F)cc3)CC2)C1 (single isomer, unassigned) [5D*, 1-(4-(difluoromethyl)phenyl)-N-(5-methyl-1-(1H-tetrazol-5-yl)azepan-3-yl)cyclopropane-1-carboxamide]
1 to 10	C[C@@H]1CCN(c2nnn[nH]2)C[C@@H](NC(=O)C2(c3c(F)cc(Cl)cc3F)CC2)C1 (single isomer, unassigned) [72B*]
10 to 50	C[C@H]1CCN(c2nnn[nH]2)C[C@@H](NC(=O)C2(c3ccc(C(F)(F)F)c(OC(F)F)c3)CC2)C1 (single isomer, unassigned) [54D*]
> 100	C[C@H]1CCN(c2nnn[nH]2)C[C@H](NC(=O)C2(c3ccc(OC(F)F)cc3)CC2)C1 (single isomer, unassigned) [58C*]
1 to 10	C[C@H]1CCN(c2nnn[nH]2)C[C@H](NC(=O)C2(c3ccc(Cl)cc3O)CC2)C1 (single isomer, unassigned) [60C*]
1 to 10	C[C@H]1CCN(c2nnn[nH]2)C[C@@H](NC(=O)C2(c3ccc(OC(F)F)cc3F)CC2)C1 (single isomer, unassigned) [3D*]
10 to 50	C[C@@H]1CCN(c2nnn[nH]2)C[C@@H](NC(=O)C2(c3ccc(C(F)F)cc3)CC2)C1 (single isomer, unassigned) [5B*, 1-(4-(difluoromethyl)phenyl)-N-(5-methyl-1-(1H-tetrazol-5-yl)azepan-3-yl)cyclopropane-1-carboxamide]
1 to 10	C[C@H]1CC[C@H](NC(=O)C2(c3ccc(Cl)cc3)CC2)CN(c2nnn[nH]2)C1 (single isomer, unassigned) [36B*, 1-(4-chlorophenyl)-N-(6-methyl-1-(1H-tetrazol-5-yl)azepan-3-yl)cyclopropane-1-carboxamide]
1 to 10	C[C@H]1CCN(c2nnn[nH]2)C[C@@H](NC(=O)C2(c3cc(F)c(C(F)(F)F)cc3F)CC2)C1 (single isomer, unassigned) [7D*, 1-(2,5-difluoro-4-(trifluoromethyl)phenyl)-N-(5-methyl-1-(1H-tetrazol-5-yl)azepan-3-yl)cyclopropane-1-carboxamide]
10 to 50	C[C@@H]1CCN(c2nnn[nH]2)C[C@@H](NC(=O)C2(c3ccc(SC(F)(F)F)cc3)CC2)C1 (single isomer, unassigned) [69B*]
10 to 50	C[C@H]1CCN(c2nnn[nH]2)C[C@@H](NC(=O)C2(c3ccc(OC(F)(F)F)cc3)CC2)C1 (single isomer, unassigned) [57D*]
> 100	C[C@H]1CCN(c2nnn[nH]2)C[C@H](NC(=O)C2(c3ccc(OC(F)(F)F)c(F)c3O)CC2)C1 (single isomer, unassigned) [28C*, 1-(3-fluoro-2-hydroxy-4-(trifluoromethoxy)phenyl)-N-(5-methyl-1-(1H-tetrazol-5-yl)azepan-3-yl)cyclopropane-1-carboxamide]

Source: patent US20260007684A1, “AMIDE DERIVATIVES FOR INHIBITING NLRP3 AND USES THEREOF” (Ventus Therapeutics U.S., Inc., priority 2023, published 2026)
